According to ChEMBL document CHEMBL5321216, “Discovery of bipyridine amide derivatives targeting pRXRα-PLK1 interaction for anticancer therapy” (Eur J Med Chem, 2023):
Active and inactive are the calls of the source. No cut-off for these calls is given here.

Tests used:
HepG2 = experiment: Antiproliferative activity against human HepG2 cells assessed as inhibition of cell proliferation incubated for 72 hrs by MTT assay; format: functional, cell-based; details: HepG2, 72 h
[1] = Cytotoxicity against human HaCaT cells assessed as inhibition of cell proliferation incubated for 72 hrs by MTT assay; format: toxicity, cell-based
[2] = Cytotoxicity against human L02 cells assessed as inhibition of cell proliferation incubated for 72 hrs by MTT assay; format: toxicity, cell-based
A549 [3] = experiment: Induction of cell cycle arrest in RXRalpha knockout human A549 cells assessed as accumulation of cells at G1 phase at 125 nM incubated for 12 hrs by DAPI staining based flow cytometry analysis (reference value: 52.29 %); format: functional
A549 [4] = experiment: Induction of cell cycle arrest in wild type human A549 cells assessed as accumulation of cells at G2 phase at 125 nM incubated for 12 hrs by DAPI staining based flow cytometry analysis (reference value: 21.99 %); format: functional
A549 [5] = experiment: Induction of apoptosis in human A549 cells assessed as dead cells at 250 nM incubated for 24 hrs by annexin V-FITC/PI staining based flow cytometry analysis (reference value: 0.75%); format: functional
A549 [6] = experiment: Induction of apoptosis in human A549 cells assessed as early apoptotic cells at 250 nM incubated for 24 hrs by annexin V-FITC/PI staining based flow cytometry analysis (reference value: 0.78%); format: functional
A549 [7] = experiment: Induction of apoptosis in human A549 cells assessed as dead cells at 125 nM incubated for 24 hrs by annexin V-FITC/PI staining based flow cytometry analysis (reference value: 0.75%); format: functional
A549 [8] = experiment: Induction of apoptosis in human A549 cells assessed as late apoptotic cells at 125 nM incubated for 24 hrs by annexin V-FITC/PI staining based flow cytometry analysis (reference value: 5.28%); format: functional
A549 [9] = experiment: Induction of apoptosis in human A549 cells assessed as early apoptotic cells at 125 nM incubated for 24 hrs by annexin V-FITC/PI staining based flow cytometry analysis (reference value: 0.78%); format: functional
A549 [10] = experiment: Induction of apoptosis in human A549 cells assessed as dead cells at 62.5 nM incubated for 24 hrs by annexin V-FITC/PI staining based flow cytometry analysis (reference value: 0.75%); format: functional
[11] = target: T1, Retinoic acid receptor RXR-alpha (Homo sapiens) (UniProt P19793); experiment: Antagonist activity at RXRalpha (unknown origin) transfected in human HeLa cells at 31.25 uM incubated for 24 hrs by dual luciferase reporter assay; format: cell-based; details: filed as antagonist
T1 sequence (whole entry): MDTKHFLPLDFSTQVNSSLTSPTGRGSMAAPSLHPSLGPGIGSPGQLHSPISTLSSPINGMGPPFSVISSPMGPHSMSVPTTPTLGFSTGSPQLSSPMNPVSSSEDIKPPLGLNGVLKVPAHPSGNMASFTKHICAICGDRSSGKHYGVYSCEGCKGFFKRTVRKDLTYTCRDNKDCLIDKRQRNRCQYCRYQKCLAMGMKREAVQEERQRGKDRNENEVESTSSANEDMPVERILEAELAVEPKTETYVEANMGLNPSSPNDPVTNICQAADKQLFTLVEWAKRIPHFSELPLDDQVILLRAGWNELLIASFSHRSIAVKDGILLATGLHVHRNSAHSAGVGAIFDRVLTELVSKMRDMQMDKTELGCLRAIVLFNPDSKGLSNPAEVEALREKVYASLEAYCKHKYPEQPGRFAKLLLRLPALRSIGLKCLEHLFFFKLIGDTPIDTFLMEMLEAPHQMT

MDA-MB-231 [12] = experiment: Induction of cell cycle arrest in human MDA-MB-231 cells assessed as accumulation of cells at G1 phase at 15.625 nM incubated for 12 hrs by flow cytometry analysis (reference value: 43.2%); format: functional; details: 0.01562 µM
MDA-MB-231 [13] = experiment: Induction of cell cycle arrest in human MDA-MB-231 cells assessed as accumulation of cells at S phase at 31.25 nM incubated for 12 hrs by flow cytometry analysis (reference value: 40.89%); format: functional
MDA-MB-231 [14] = experiment: Induction of cell cycle arrest in human MDA-MB-231 cells assessed as accumulation of cells at G2 phase at 62.5 nM incubated for 12 hrs by flow cytometry analysis (reference value: 15.91%); format: functional
MDA-MB-231 [15] = experiment: Induction of cell cycle arrest in human MDA-MB-231 cells assessed as accumulation of cells at G1 phase at 125 nM incubated for 12 hrs by flow cytometry analysis (reference value: 43.2%); format: functional
A549 [16] = experiment: Induction of cell cycle arrest in human A549 cells assessed as accumulation of cells at G1 phase at 15.625 nM incubated for 12 hrs by flow cytometry analysis (reference value: 59.57%); format: functional; details: 0.01562 µM
A549 [17] = experiment: Induction of cell cycle arrest in human A549 cells assessed as accumulation of cells at S phase at 15.625 nM incubated for 12 hrs by flow cytometry analysis (reference value: 31.81%); format: functional; details: 0.01562 µM
A549 [18] = experiment: Induction of cell cycle arrest in human A549 cells assessed as accumulation of cells at G2 phase at 125 nM incubated for 12 hrs by flow cytometry analysis (reference value: 8.62%); format: functional
MDA-MB-231 [19] = experiment: Induction of apoptosis in human MDA-MB-231 cells assessed as live cells at 62.5 nM incubated for 24 hrs by annexin V-FITC/PI staining based flow cytometry analysis (reference value: 91.3%); format: functional
MDA-MB-231 [20] = experiment: Induction of apoptosis in human MDA-MB-231 cells assessed as live cells at 125 nM incubated for 24 hrs by annexin V-FITC/PI staining based flow cytometry analysis (reference value: 91.3%); format: functional
MDA-MB-231 [21] = experiment: Induction of apoptosis in human MDA-MB-231 cells assessed as dead cells at 250 nM incubated for 24 hrs by annexin V-FITC/PI staining based flow cytometry analysis (reference value: 0.69%); format: functional
[22] = Tmax in Sprague-Dawley rat at 25 mg/kg, ip measured for 48 hrs by LC-MS/MS analysis; format: ADME, organism-based; details: in vivo
[23] = Elimination half life in Sprague-Dawley rat at 25 mg/kg, ip measured for 48 hrs by LC-MS/MS analysis; format: ADME, organism-based; details: in vivo, read-out: beta t1/2 (converted)
[24] = Apparent volume of distribution during terminal phase in Sprague-Dawley rat at 25 mg/kg, ip measured for 48 hrs by LC-MS/MS analysis; format: ADME, organism-based; details: in vivo, read-out: Vz/F
[25] = Toxicity in BALB/c mouse xenografted with human MDA-MB-231 cells assessed as reduction in body weight at 12.5 to 25 mg/kg/day, ip administered for 15 days; format: organism-based; details: in vivo, 360 h, dose 12.5-25 mg/kg/day, time 15 day
[26] = Toxicity in BALB/c mouse xenografted with human MDA-MB-231 cells assessed as spleen damage at 25 mg/kg/day, ip administered for 15 days by H and E staining based analysis; format: organism-based; details: in vivo, 360 h, time 15 day
MDA-MB-231 [27] = experiment: Downregulation of RXRalpha protein level in human MDA-MB-231 cells at 125 nM measured after 1 to 24 hrs by Western blot analysis; format: functional, cell-based; details: time 1-24 hrs
HeLa = experiment: Inhibition of MYC tagged pRXRalpha-FLAG tagged PLK1 (unknown origin) protein-protein interaction transfected in human HeLa cells at 500 nM incubated for 3 hrs by co-immunoprecipitation assay; format: cell-based

Q: For `O=C(/C=C/c1ccccc1)Nc1cc(-c2ccnc(N3CCC(CO)CC3)c2)ccn1`, which IC50 (HepG2) is on record?
A: Its IC50 is 128 nM.

Q: What about the IC50 at 72 h [1] of the same compound?
A: Its IC50 at 72 h is 51 nM.

Q: And the IC50 at 72 h [2]?
A: The IC50 at 72 h was 64 nM.

Q: What about the Activity (A549 [3]) of the same compound?
A: Its Activity is 17.83%.

Q: And the Activity (A549 [4])?
A: Its Activity is 79.66%.

Q: What about the Activity (A549 [5]) of the same compound?
A: Its Activity is 2.36%.

Q: And the Activity (A549 [6])?
A: The Activity was 31.3%.

Q: And the Activity (A549 [7])?
A: The Activity was 2.31%.

Q: And the Activity (A549 [8])?
A: The Activity was 22.8%.

Q: And the Activity (A549 [9])?
A: The Activity was 22.9%.

Q: And the Activity (A549 [10])?
A: Its Activity is 2.76%.

Q: And the Activity [11]?
A: The Activity was “Active”.

Q: And the Activity (MDA-MB-231 [12])?
A: Its Activity is 42.77%.

Q: What about the Activity (MDA-MB-231 [13]) of the same compound?
A: The Activity was 30.34%.

Q: And the Activity (MDA-MB-231 [14])?
A: The Activity was 81.68%.

Q: And the Activity (MDA-MB-231 [15])?
A: The Activity was 0.07%.

Q: And the Activity (A549 [16])?
A: The Activity was 59.06%.

Q: What about the Activity (A549 [17]) of the same compound?
A: The Activity was 31.99%.

Q: What about the Activity (A549 [18]) of the same compound?
A: Its Activity is 46.39%.

Q: And the Activity (MDA-MB-231 [19])?
A: The Activity was 69.2%.

Q: What about the Activity (MDA-MB-231 [20]) of the same compound?
A: Its Activity is 66.9%.

Q: What about the Activity (MDA-MB-231 [21]) of the same compound?
A: Its Activity is 1.67%.

Q: What about the Tmax [22] of the same compound?
A: Its Tmax is 8.4 min.

Q: What about the half-life [23] of the same compound?
A: Its half-life is 2.23 h.

Q: What about the Vd/F [24] of the same compound?
A: The Vd/F was 5.15 L/kg.

Q: What about the Activity [25] of the same compound?
A: The Activity was “Non-Toxic”.

Q: What about the Activity [26] of the same compound?
A: The Activity was “Non-Toxic”.

Q: And the Activity (MDA-MB-231 [27])?
A: Its Activity is “Active”.

Q: And the inhibition (HeLa)?
A: The inhibition was “Active”.
